Test system: Tau phosphorylation at Ser 396 in SH-SY5Y cells
Experiment: Aβ25-35-induced Tau phosphorylation (Ser396) in SH-SY5Y cells, Western blotting
Type: cell-based, human
Settings: 100 nM, inhibitors 1 hour, then Aβ25–35 6 hours, Western blot
Experimental: It has been implicated that GSK-3β is involved in multiple cellular processes, and its ability to hyperphosphorylate Tau protein and induce neurofibrillary tangle was intensively studied. Therefore, the cell-based assay examining Tau phosphorylation at Serine 396 represents a direct functional assay to measure the cellular activity of GSK-3β inhibitors. Compounds 7c, 7f, 7j–l and 7o–q were tested for the ability to reduce Tau phosphorylation at Ser 396 in human neuroblastoma SH-SY5Y cells. LiCl, a well-known inhibitor of GSK-3β [24], was used as a positive control in this assay. […] The Aβ-induced Tau hyperphosphorylation results in neurofibrillary tangle formation, which plays an important role in Alzheimer’s disease. […] In addition, the predictions about these compounds’ brain permeability were performed using ADME module with Discovery Studio 2.1 software package.
SH-SY5Y human neuroblastoma cells were obtained from the American Type Culture Collection (ATCC, Manassas, VA, USA). Cells were cultured in 1:1 DMEM:Ham's F12 containing 10% (v/v) fetal bovine serum (HyClone, Logan, UT, USA), 1% penicillin, and 1% streptomycin at a humidified atmosphere with 5% CO2. The medium was changed every 2 days. […] Antigen-antibody complexes were detected by the ECL Kit.

O=C1NC(=O)C(c2cn(CCCN3CCOCC3)c3ccc(Br)cc23)=C1c1noc2ccccc12 [7c, 3-(Benzo[d]isoxazol-3-yl)-4-(5-bromo-1-(3-morpholinopropyl)-1H-indol-3-yl)-1H-pyrrole-2,5-dione]
Effect on Aβ25-35-induced Tau phosphorylation at Ser 396: obviously reduce

From paper PMC6270165, “Synthesis and Biological Evaluation of 3-Benzisoxazolyl-4-indolylmaleimides as Potent, Selective Inhibitors of Glycogen Synthase Kinase-3β” (Molecules, 2013)
